Data taken from patent US20240115711A1, “Novel Bifunctional Molecules For Targeted Protein Degradation” (Amphista Therapeutics Limited, priority 2020, published 2024).
Where two headings read alike, the source gives them in different places. Values belong to the compound of their own block, whether it stands above or below them.

Tests used:
[1] = In vivo drug exposure in the brain after systemic dosing; conditions: C57BL/6 mice, intravenous 5 mg/kg dose
Protocol: Blood collection: The animal was restrained manually at designated time points up to 24 h, approximately 110 μL of blood sample was collected via facial vein into K2EDTA tubes. Blood sample was put on ice and centrifuged at 2000 g for 5 min (4° C.) to obtain plasma sample within 15 minutes. Brain collection: The animal was euthanized under CO2. A mid-line incision was made in the animal's scalp and skin retracted. The skull overlying the brain was removed. The whole brain was collected, rinsed with cold saline, dried on filtrate paper, weighted, snap frozen by placing into dry-ice. The sample was homogenized with 3 volumes (v/w) of PBS prior to analysis. Samples were analysed on an LC-MS/MS-19 (Triple Quad 5500) in positive ion ESI mode following sample prep and HPLC elution: Mobile Phase: • Mobile Phase A: H2O—0.025% FA—1 mM NH4OAC • Mobile Phase B: MeOH—0.025% FA—1 mM NH4OAc • Column: waters BEH C18 (2.1×50 mm, 1.7 μm) • Flow rate: 0.60 mL/min • Column temperature: 60° C.

[2] = In vivo systemic drug exposure after oral and intravenous dosing; conditions: female, mouse, plasma, C57BL/6 mice
Protocol: Test compound was administered to C57BL/6 mice, (6-8 weeks, 18-20 g, female, N=6, purchased from JH Laboratory Animal Co. with free access to food and water) at the indicated dose level via oral gavage (p.o., 10 mL/kg, 5% DMSO+95%(15% HP-β-CD in Water) vehicle, oral dosing leg) or tail vein (i.v., 5 mL/kg, 5% DMSO+95%(15% HP-β-CD in Water) vehicle, intravenous leg). The animal was restrained manually at designated time points up to 24 h, approximately 110 μL of blood sample was collected via facial vein into K2EDTA tubes. Blood sample was put on ice and centrifuged at 2000 g for 5 min to obtain plasma sample within 15 minutes which was analysed on an LC-MS/MS-19 (Triple Quad 5500) in positive ion ESI mode following sample prep and HPLC elution:
Mobile Phase: • Mobile Phase A: H2O—0.025% FA—1 mM NH4OAC • Mobile Phase B: MeOH—0.025% FA—1 mM NH4OAc
• Column: ACQUITY UPLC BEH C18 2.1*50 mm 1.7 um • Flow rate: 0.60 mL/min • Column temperature: 60° C.

[3] = tested on: MV4;11 cells; test: Assay 3 - MV4;11 cell viability using CellTiter-Glo assay; type: cell-based; conditions: Homo sapiens, 48 h incubation
Protocol: 1.3 Assay 3—MV4;11 Cell Viability Using CellTiter-Glo Assay
The anti-proliferative effects of representative compounds were measured using the CellTiter-Glo assay (Promega). MV4;11 cells were seeded into sterile, white, clear-bottomed 384-well cell-culture microplates (Greiner Bio-one), at 2× concentration in IMDM media and a volume of 25 μL. Test compounds were serially diluted (11-pt dose-response from 1 μM) in IMDM media to 2× concentration, then added to cells to make a final volume of 50 μL. Final DMSO concentration was 0.05%. After 48 h incubation, 25 μL of CellTiter-Glo reagent was added to each well. Following a 15 minutes incubation the luminescence signal was read on a CLARIOStar Plus. Data was processed and dose-response curves were generated using Prism 8 (Graphpad).
The impact on cell viability of MV4;11 cells was evaluated according to the procedure outlined in assay 3 for compounds A1, A2, A8 and A9.

[4] = tested on: tumor cell lines; test: Cancer cell panel screening, GI50 by Sulforhodamine B method; type: cell-based; conditions: up to 94 tumor cell lines, 72 h
Protocol: Cancer cell panel screening was provided as a service from OncoLead GmbH & Co. KG. After a lag phase of 48 h, each cell line was treated with six different concentrations (10^−10, 10^−9, 10^−8, 10^−7, 10^−6, 10^−5 M) of either A2 or I-BET726 for 72 h. Concentrations to give half-maximal growth inhibition (GI50) were determined using the Sulforhodamine B method. Log(GI50) values were plotted as single points (I-BET726, cross; A2, dot) superimposed on the bar graph and plotted along the right y axis. Log ratio of the GI50 determined for I-BET726 versus the GI50 determined for A2 were plotted for each cell line tested (bars, left y axis).
Where no specific GI50 value could be determined, a GI50 of at least 10^−5 M was assumed to calculate the inhibitor vs degrader ratio.
Similar studies have previously been carried out on CRBN PROTAC (dBET6) and VHL PROTAC (MZ1) (see, for example, Ottis et al, ACS Chem. Biol. 2019, 14, 2215-2223 under identical assay conditions).
Low sensitivity/resistant defined as degrader GI50<inhibitor.

[5] = target: T1, mutant KRas (G12C) (Homo sapiens, UniProt P01116, G12C); test: Assay 6 - Degradation of KRas-G12C by immunoblot (MIA-PaCa-2 cells); type: cell-based; conditions: after 24 h treatment with 1000 nM
T1 construct: endogenous in cells; host or cells: MIA-PaCa-2
Protocol: 1.6 Assay 6—Degradation of KRas-G12C by Immunoblot.
MIA-PaCa-2 cells were seeded in 6- or 12-well plates overnight prior to 24 h treatment with test compounds at the desired concentration (DMSO final concentration 0.1%). After 24 h incubation, cells were washed with PBS and lysed with RIPA buffer (Sigma) supplemented with 1 mM MgCl2, 1 U/mL Benzonase (Sigma), and 1× cOmplete Mini EDTA-free Protease Inhibitor Cocktail (Roche). Lysates were clarified by centrifugation (15,000×g, 20 min, 4° C.) and the total protein content of the supernatant was quantified using a BCA assay. Samples were prepared using equal amounts of total protein and LDS sample buffer (Invitrogen). […] Blots were visualised using a Bio-Rad ChemiDoc MP Imaging System, and band quantification was performed using Image Studio software (LiCor). […] Degradation data was plotted and analysed using Prism (Graphpad, version 8).
The degradation of target protein mutant KRas (G12C) was detected according to the procedure outlined in […] for the compound A64.

[6] = target: T2, HiBit-BRD4 (Homo sapiens, UniProt O60885); test: Assay 1 - Degradation of HiBit-BRD4 in HEK293; type: cell-based; conditions: HiBit-BRD4 HEK293, 6 h treatment
T2 construct: HEK293 containing a HiBit insertion for BRD4; endogenous in cells; host or cells: HEK293 with HiBit insertion at BRD4
Protocol: 1.1 Assay 1—Degradation of HiBit-BRD4 in HEK293
HEK293 containing a HiBit insertion for BRD4 were plated in 384-well tissue culture plates at a density of 8×10^4 per well in a volume of 36 μL and incubated overnight at 37° C. and 5% CO2. Wells were treated with test compounds for 6 h prior to addition of the NanoLuc substrate and reading on a […]. Degradation data was plotted and analysed using […] (Graphpad).
The degradation of target protein BRD4 was detected according to the procedure outlined in assay 1 for the following compounds.

[7] = tested on: tumor cell lines; conditions: up to 94 tumor cell lines, from Ottis et al, identical assay conditions, cited from earlier work; for # tumor cell lines Low sensitivity/Resistant: degrader GI50 < inhibitor; for # tumor cell lines Highly sensitive: degrader GI50 >3 fold more potent than inhibitor

T1 sequence (P01116 1-188 isoform P01116-2 G12C): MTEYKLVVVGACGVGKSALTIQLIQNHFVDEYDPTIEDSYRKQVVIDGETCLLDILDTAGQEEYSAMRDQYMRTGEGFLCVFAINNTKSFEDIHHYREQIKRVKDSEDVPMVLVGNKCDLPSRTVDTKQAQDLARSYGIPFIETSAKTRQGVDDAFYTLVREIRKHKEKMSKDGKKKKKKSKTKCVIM

Structure (SMILES): CCCC(c1ccc(CCCN2CCC(CNc3ncc(SCc4ncc(C(C)(C)C)o4)s3)CC2)cc1)N(C)C(=O)/C(C#N)=C/c1nc2ccccc2s1 (stereo not shown) [Example A39, 3-(benzo[d]thiazol-2-yl)-N-(1-(4-(3-(4-(((5-(((5-(tert-butyl)oxazol-2-yl)methyl)thio)thiazol-2-yl)amino)methyl)piperidin-1-yl)propyl)phenyl)butyl)-2-cyano-N-methylacrylamide]
brain AUC(0-INF) [1]: 845 ng·h/mL
Kp ([1]; female, mouse, brain and plasma, ratio of AUC(0-INF)): 0.6
AUC(0-inf) ([1]; female, mouse, plasma): 1340 ng·h/mL

Structure (SMILES): CCCC1c2ccc(OCCN3CCC(C(=O)Nc4ncc(SCc5ncc(C(C)(C)C)o5)s4)CC3)cc2CCN1C(=O)/C(C#N)=C/c1cccc(Br)n1 (stereo not shown) [Example A37]
bioavailability ([2]; 10 mg/kg oral vs 1 mg/kg intravenous): 7.2%
AUC(0-inf) ([2]; intravenous 1 mg/kg dose): 841 ng·h/mL
AUC(0-inf) ([2]; oral 10 mg/kg dose): 605 ng·h/mL

Structure (SMILES): Cc1ncsc1-c1ccc(CNC(=O)[C@@H]2C[C@@H](O)CN2C(=O)[C@@H](NC(=O)COCCOCCOCCNC(=O)C[C@@H]2N=C(c3ccc(Cl)cc3)c3c(sc(C)c3C)-n3c(C)nnc32)C(C)(C)C)cc1 [VHL PROTAC (MZ1), MZ1]
# tumor cell lines GI50, <1 μM [7]: 83%
# tumor cell lines Low sensitivity/Resistant [7]: 26%
# tumor cell lines Highly sensitive [7]: 47%

Structure (SMILES): Cc1sc2c(c1C)C(c1ccc(Cl)cc1)=N[C@@H](CC(=O)NCCCCCCCCNC(=O)COc1cccc3c1C(=O)N(C1CCC(=O)NC1=O)C3=O)c1nnc(C)n1-2 (stereo partly shown) [CRBN PROTAC (dBET6), dBET6]
# tumor cell lines GI50, <1 μM [7]: 58%
# tumor cell lines Low sensitivity/Resistant [7]: 52%
# tumor cell lines Highly sensitive [7]: 29%

Now from value to compound, other results behind:

IC50 [3]: 2 nM
# tumor cell lines GI50, <1 μM [4]: 100%
Structure (SMILES): CCCC(c1ccc(OCC(=O)NCCOCCOCCOCCOCCOCCNC(=O)c2ccc(-c3ccc4c(c3)[C@H](Nc3ccc(Cl)cc3)C[C@H](C)N4C(C)=O)cc2)cc1)N(C)C(=O)/C(C#N)=C/c1nccs1 (stereo partly drawn) [Example A2, 4-((2S,4R)-1-acetyl-4-((4-chlorophenyl)amino)-2-methyl-1,2,3,4-tetrahydroquinolin-6-yl)-N-(1-(4-(1-((E)-2-cyano-N-methyl-3-(thiazol-2-yl)acrylamido)butyl)phenoxy)-2-oxo-6,9,12,15,18-pentaoxa-3-azaicosan-20-yl)benzamide]
# tumor cell lines Highly sensitive ([4]; highly sensitive = degrader GI50 >3 fold more potent than inhibitor): 66%
# tumor cell lines Low sensitivity/Resistant ([4]; low sensitivity/resistant = degrader GI50 < inhibitor): 15%

residual KRas (G12C) abundance [5]: less than 50%
Structure (SMILES): C=CC(=O)N1CCN(c2nc(OC[C@@H]3CCCN3CCCCNC(=O)CCc3ccc(C(CCC)N(C)C(=O)/C(C#N)=C/c4nccs4)cc3)nc3c2CCN(c2cccc4cccc(Cl)c24)C3)C[C@@H]1CC#N (stereo partly drawn) [Example A64, (E)-N-[1-[4-[3-[4-[(2S)-2-[[7-(8-chloro-1-naphthyl)-4-[(3S)-3-(cyanomethyl)-4-prop-2-enoyl-piperazin-1-yl]-6,8-dihydro-5H-pyrido[3,4-d]pyrimidin-2-yl]oxymethyl]pyrrolidin-1-yl]butylamino]-3-oxo-propyl]phenyl]butyl]-2-cyano-N-methyl-3-thiazol-2-yl-prop-2-enamide]

DC50 [6]: < 10000 nM
Structure (SMILES): CCCC(c1ccc(OCC(=O)NCCOCCOCCOCCOCCOCCNC(=O)c2ccc(-c3ccc4c(c3)[C@H](Nc3ccc(Cl)cc3)C[C@H](C)N4C(C)=O)cc2)cc1)N(C)C(=O)/C=C/c1nccs1 (stereo partly shown) [Example A6]

IC50 [3]: 48 nM
Structure (SMILES): CCCC(NC(=O)/C(C#N)=C/c1nccs1)c1ccc(OCC(=O)NCCOCCOCCOCCOCCOCCNC(=O)c2ccc(-c3ccc4c(c3)[C@H](Nc3ccc(Cl)cc3)C[C@H](C)N4C(C)=O)cc2)cc1 (stereo partly drawn) [Example A1, 4-((2S,4R)-1-acetyl-4-((4-chlorophenyl)amino)-2-methyl-1,2,3,4-tetrahydroquinolin-6-yl)-N-(1-(4-(1-((E)-2-cyano-3-(thiazol-2-yl)acrylamido)butyl)phenoxy)-2-oxo-6,9,12,15,18-pentaoxa-3-azaicosan-20-yl)benzamide]
